Assay results taken from patent publication US8710038B2, “Pyrazole kinase modulators and methods of use” (Exelixis, Inc., priority 2004, dated 2014).

What was measured:
c-Kit = c-Kit (Homo sapiens, UniProt P10721); experiment: c-Kit biochemical assay (AlphaScreen)
Text: (§1) AlphaScreen technology is a proximity assay which utilizes the increase in fluorescent signal occurring when donor and acceptor beads are close in proximity. Biotinylated poly(Glu,Tyr) 4:1 is used as the kinase substrate, in conjunction with streptavidin-coated donor beads and anti-phosphortyrosine antibody PY100-coated acceptor beads. Upon phosphorylation, the peptide substrate can bind to both donor and acceptor beads giving rise to an increase in fluorescence. Compounds, ATP, biotinylated poly(Glu, Tyr) and kinases are mixed in a volume of 20 uL for 1 hr at ambient temperature using Greiner 384-well white clear bottom medium binding plates. Following incubation a 10 uL solution containing […] AlphaScreen beads, 75 mM Hepes, pH 7.4, 300 mM NaCl, 120 mM EDTA, 0.3% BSA and 0.03% Tween-20 is added to each well. After 2-16 hr incubation of the beads, plates are read in a Perkin Elmer AlphaQuest reader. The IC50 values correlates well with those of radiometric assays.
c-Kit biochemical activity was assessed using AlphaScreen™ (Perkin Elmer) technology, described above. Test compounds, ATP, biotinylated poly(Glu, Tyr) and c-Kit kinase were combined in a volume of 20 μL in a 384-well white, medium binding microtiter plate (Greiner). Reaction mixtures were incubated for 1 hr at ambient temperature. Reactions were quenched by addition of 10 uL of […] AlphaScreen bead suspension containing 75 mM Hepes, pH 7.4, 300 mM NaCl, 120 mM EDTA, 0.3% BSA and 0.03% Tween-20. After 16 hr incubation at ambient temperature plates were read using an AlphaQuest reader (Perkin Elmer).

flt-3 = biological target: T1, flt-3 (Homo sapiens, UniProt P36888); experiment: flt-3 Luciferase-Coupled Chemiluminescent Kinase assay (LCCA); format: biochemical
T1 construct: baculovirus expressed human Flt-3 kinase domain R571-S993
T1 sequence (P36888 571-993): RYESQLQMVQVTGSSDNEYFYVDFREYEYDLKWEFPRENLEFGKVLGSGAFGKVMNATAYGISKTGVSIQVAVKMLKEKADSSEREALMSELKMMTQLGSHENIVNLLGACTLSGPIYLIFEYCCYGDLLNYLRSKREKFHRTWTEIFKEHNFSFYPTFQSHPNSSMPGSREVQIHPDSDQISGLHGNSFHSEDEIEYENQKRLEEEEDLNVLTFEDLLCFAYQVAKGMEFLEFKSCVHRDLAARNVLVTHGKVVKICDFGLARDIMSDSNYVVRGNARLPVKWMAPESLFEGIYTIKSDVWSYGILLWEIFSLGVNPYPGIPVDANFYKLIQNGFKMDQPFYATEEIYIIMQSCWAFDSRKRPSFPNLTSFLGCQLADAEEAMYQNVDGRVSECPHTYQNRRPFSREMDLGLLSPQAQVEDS
Procedure: (§2) In the LCCA assays, kinase activity is measured as the percent ATP consumed following the kinase reaction using luciferase-luciferin-coupled chemiluminescence. Greiner 384-well white, clear bottom, medium-binding plates are used for LCCA. Briefly, the kinase reaction is initiated by mixing compounds, ATP and kinase in a 20 uL volume. The mixture is incubated at ambient temperature for 2-4 hrs. At the end of the kinase reaction, a 20 uL luciferase-luciferin mix is added and the chemiluminescent signal is read using a Wallac Victor^2 reader. The luciferase-luciferin mix consists of 50 mM HEPES, pH 7.8, 8.5 ug/mL oxalic acid (pH 7.8), 5 (or 50) mM DTT, 0.4% Triton X-100, 0.25 mg/mL coenzyme A, 63 uM AMP, 28 ug/mL luciferin and 40,000 units of light/mL luciferase. For the LCCA assays, total ATP consumption has been standardized to 25-45% and the IC50 values correlates well with those determined by radiometric assays.
Flt-3 biochemical activity was assessed using a Luciferase-Coupled Chemiluminescent Kinase assay (LCCA) format. Kinase activity was measured as the percent ATP remaining following the kinase reaction. Remaining ATP was detected by luciferase-luciferin-coupled chemiluminescence. Specifically, the reaction was initiated by mixing test compounds, 5 μM ATP, 3 μM poly-EY and 5 nM Flt-3 (baculovirus expressed human Flt-3 kinase domain R571-S993) in a 20 uL assay buffer (20 mM Tris-HCL pH7.5, 10 mM MgCl2, 0.01% Triton X-100, 1 mM DTT, 2 mM MnCl2). The mixture is incubated at ambient temperature for 3 hours after which 20 uL luciferase-luciferin mix is added and the chemiluminescent signal read using a Wallac Victor^2 reader. The luciferase-luciferin mix consists of 50 mM HEPES, pH 7.8, 8.5 ug/mL oxalic acid (pH 7.8), 5 (or 50) mM DTT, 0.4% Triton X-100, 0.25 mg/mL coenzyme A, 63 uM AMP, 28 ug/mL luciferin and 40,000 units of light/mL luciferase.

EphB4 = biological target: T2, EphB4 (Homo sapiens, UniProt P54760); experiment: EphB4 kinase inhibition assay; format: biochemical
T2 sequence (P54760 16-987): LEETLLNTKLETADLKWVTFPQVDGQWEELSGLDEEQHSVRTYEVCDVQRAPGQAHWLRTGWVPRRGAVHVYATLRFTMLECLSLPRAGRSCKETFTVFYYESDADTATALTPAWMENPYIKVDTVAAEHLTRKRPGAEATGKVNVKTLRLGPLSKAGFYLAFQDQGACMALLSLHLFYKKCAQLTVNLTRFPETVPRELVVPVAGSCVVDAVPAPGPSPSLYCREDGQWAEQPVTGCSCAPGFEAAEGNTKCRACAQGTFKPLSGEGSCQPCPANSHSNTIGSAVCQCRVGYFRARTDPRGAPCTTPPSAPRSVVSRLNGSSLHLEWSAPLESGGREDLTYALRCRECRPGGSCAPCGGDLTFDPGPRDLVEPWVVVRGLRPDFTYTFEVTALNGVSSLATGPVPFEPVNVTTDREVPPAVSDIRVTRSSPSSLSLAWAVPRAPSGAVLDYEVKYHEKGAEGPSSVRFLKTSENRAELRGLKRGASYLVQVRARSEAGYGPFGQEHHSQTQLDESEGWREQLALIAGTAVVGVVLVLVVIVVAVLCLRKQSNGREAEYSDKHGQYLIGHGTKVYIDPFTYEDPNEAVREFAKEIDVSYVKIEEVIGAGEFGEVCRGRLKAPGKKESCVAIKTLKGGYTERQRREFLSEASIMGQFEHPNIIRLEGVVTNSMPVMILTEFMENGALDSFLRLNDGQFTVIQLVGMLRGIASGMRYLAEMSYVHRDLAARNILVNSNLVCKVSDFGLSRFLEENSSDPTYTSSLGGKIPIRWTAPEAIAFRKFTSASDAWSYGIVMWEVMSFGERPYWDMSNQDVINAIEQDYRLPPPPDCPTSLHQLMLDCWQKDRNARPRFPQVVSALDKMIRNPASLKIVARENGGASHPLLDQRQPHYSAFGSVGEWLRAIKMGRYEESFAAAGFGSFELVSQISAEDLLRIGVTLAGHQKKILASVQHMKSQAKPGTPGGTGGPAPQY
Procedure: (§3) Kinase activity and compound inhibition are investigated using one or more of the three assay formats described below. The ATP concentrations for each assay are selected to be close to the Michaelis-Menten constant (KM) for each individual kinase. Dose-response experiments are performed at 10 different inhibitor concentrations in a 384-well plate format. The data are fitted to four-parameter equation (2) below; where Y is the observed signal, X is the inhibitor concentration, Min is the background signal in the absence of enzyme (0% enzyme activity), Max is the signal in the absence of inhibitor (100% enzyme activity), IC50 is the inhibitor concentration at 50% enzyme inhibition and H represents the empirical Hill's slope to measure the cooperativity. Typically H is close to unity. Y=Min+(Max−Min)/(1+(X/IC50)^H) Equation (2) ^33P Phosphoryl Transfer Assay: […]
(§4) Greiner 384-well white, clear bottom, high binding plates are coated with 2 μg/well of protein or peptide substrate in a 50 μL volume overnight at ambient temperature. The coating buffer typically contains 40 μg/mL substrate, 22.5 mM Na2CO3, 27.5 mM NaHCO3, 150 mM NaCl and 3 mM NaN3. The coating solution is aspirated and the plates are washed once with 50 μL of assay buffer and padded dry. Subsequently compounds and enzymes are mixed with γ^33P-ATP (3.3 μCi/nmol) in a total volume of 20 uL in suitable assay buffers. The mixture is incubated at ambient temperature for 1.5-2.5 hrs and terminated by aspiration using a Molecular Devices EMBLA 96-head plate washer. The plates are subsequently washed 6-12 times with PBST or TBS buffer. Scintillation fluid (50 μl/well) is then added, the plates are sealed and activity assessed by liquid scintillation spectrometry using a Perkin Elmer MicroBeta TriLux.
as §2, §1

EGFR = EGFR (Homo sapiens, UniProt P00533); experiment: EGFR kinase inhibition assay; format: biochemical
Sequence of EGFR (P00533 25-1210, species assumed): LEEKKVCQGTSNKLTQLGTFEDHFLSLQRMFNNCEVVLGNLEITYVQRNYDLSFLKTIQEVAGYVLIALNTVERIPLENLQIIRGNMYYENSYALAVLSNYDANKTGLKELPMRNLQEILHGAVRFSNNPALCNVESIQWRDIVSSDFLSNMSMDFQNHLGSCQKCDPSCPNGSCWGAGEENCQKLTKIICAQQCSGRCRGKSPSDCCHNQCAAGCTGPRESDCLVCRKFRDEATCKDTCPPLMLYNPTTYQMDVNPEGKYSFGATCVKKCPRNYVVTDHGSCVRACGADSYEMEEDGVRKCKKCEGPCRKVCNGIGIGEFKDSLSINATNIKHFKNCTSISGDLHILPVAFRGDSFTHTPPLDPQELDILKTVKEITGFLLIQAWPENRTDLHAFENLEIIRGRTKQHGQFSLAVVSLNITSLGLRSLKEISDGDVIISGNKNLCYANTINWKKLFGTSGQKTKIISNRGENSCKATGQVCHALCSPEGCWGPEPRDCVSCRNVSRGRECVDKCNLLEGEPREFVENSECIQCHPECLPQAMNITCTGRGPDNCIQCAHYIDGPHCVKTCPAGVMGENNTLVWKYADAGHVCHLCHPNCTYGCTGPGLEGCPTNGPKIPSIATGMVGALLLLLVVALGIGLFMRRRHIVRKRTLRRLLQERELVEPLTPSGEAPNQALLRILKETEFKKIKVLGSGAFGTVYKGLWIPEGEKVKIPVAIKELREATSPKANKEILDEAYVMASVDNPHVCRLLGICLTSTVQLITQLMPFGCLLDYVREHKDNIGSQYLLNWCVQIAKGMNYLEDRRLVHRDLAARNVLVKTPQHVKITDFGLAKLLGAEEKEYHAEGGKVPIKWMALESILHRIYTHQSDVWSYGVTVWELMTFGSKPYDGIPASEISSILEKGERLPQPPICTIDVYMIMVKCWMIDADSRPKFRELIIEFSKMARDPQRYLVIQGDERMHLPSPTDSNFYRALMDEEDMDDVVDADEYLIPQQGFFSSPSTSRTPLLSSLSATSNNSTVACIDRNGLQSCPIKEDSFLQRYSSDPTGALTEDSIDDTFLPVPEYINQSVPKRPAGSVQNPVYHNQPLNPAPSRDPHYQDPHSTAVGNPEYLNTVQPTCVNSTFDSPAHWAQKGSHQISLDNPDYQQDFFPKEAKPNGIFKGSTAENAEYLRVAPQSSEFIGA
Procedure: as §3, §4, §2, §1

Sequence of c-Kit (P10721 26-976): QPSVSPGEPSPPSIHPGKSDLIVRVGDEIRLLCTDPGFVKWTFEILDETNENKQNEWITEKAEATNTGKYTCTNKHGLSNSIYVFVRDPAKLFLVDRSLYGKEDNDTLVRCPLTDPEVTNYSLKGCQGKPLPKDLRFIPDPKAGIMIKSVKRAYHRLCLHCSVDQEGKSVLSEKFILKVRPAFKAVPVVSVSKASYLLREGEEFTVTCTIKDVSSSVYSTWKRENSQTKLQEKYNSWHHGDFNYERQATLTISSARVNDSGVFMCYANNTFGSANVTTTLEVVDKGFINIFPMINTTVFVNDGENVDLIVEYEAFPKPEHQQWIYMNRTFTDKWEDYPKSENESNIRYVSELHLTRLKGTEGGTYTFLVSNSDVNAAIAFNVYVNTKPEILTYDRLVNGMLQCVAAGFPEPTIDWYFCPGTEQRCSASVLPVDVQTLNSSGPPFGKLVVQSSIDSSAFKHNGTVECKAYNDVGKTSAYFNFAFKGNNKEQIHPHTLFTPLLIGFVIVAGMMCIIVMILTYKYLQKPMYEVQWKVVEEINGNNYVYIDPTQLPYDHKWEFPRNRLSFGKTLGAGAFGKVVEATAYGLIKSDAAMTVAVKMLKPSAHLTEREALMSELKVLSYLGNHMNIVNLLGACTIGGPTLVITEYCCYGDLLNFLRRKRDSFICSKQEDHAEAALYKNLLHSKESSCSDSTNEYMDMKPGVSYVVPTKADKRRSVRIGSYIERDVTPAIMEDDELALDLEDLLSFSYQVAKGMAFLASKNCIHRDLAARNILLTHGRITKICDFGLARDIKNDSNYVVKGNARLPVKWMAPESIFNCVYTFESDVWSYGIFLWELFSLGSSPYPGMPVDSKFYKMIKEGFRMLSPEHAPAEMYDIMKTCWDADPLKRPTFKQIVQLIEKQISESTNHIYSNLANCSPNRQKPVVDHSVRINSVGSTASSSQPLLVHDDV

| SMILES | IC50 (c-Kit) | IC50 (flt-3) | IC50 (EphB4) | IC50 (EGFR) |
| --- | --- | --- | --- | --- |
| CN1CCN(c2ccc3[nH]c(-c4cc(-c5ccc(NC(=O)Nc6cccc(C(F)(F)F)c6)cc5)[nH]n4)nc3c2)CC1 [Entry 15, N-(4-{3-[5-(4-methylpiperazin-1-yl)-1H-benzimidazol-2-yl]-1H-pyrazol-5-yl}phenyl)-N′-[3-(trifluoromethyl)phenyl]urea] | < 0.05 µM | < 0.05 µM | 0.5 to 5 µM | > 5 µM |
| CN1CCN(c2ccc(-c3cc(-c4ccc(NC(=O)Nc5ccc(Cl)c(C(F)(F)F)c5)cc4)[nH]n3)cc2)CC1 [Entry 16, N-[4-chloro-3-(trifluoromethyl)phenyl]-N′-(4-{3-[4-(4-methylpiperazin-1-yl)phenyl]-1H-pyrazol-5-yl}phenyl)urea] | < 0.05 µM | < 0.05 µM | > 5 µM | > 5 µM |
| CN1CCN(c2ccc3[nH]c(-c4cc(-c5ccc(NC(=O)Nc6ccc(Cl)cc6)cc5)[nH]n4)nc3c2)CC1 [Entry 18, N-(4-chlorophenyl)-N′-(4-{3-[5-(4-methylpiperazin-1-yl)-1H-benzimidazol-2-yl]-1H-pyrazol-5-yl}phenyl)urea] | < 0.05 µM | < 0.05 µM | > 5 µM | > 5 µM |
| CN1CCN(c2ccc3[nH]c(-c4cc(-c5ccc(NC(=O)Nc6cc(F)cc(F)c6)cc5)[nH]n4)nc3c2)CC1 [Entry 19, N-(3,5-difluorophenyl)-N′-(4-{3-[5-(4-methylpiperazin-1-yl)-1H-benzimidazol-2-yl]-1H-pyrazol-5-yl}phenyl)urea] | < 0.05 µM | < 0.05 µM | > 5 µM | > 5 µM |
| COc1cccc(NC(=O)Nc2ccc(-c3cc(-c4nc5cc(N6CCN(C)CC6)ccc5[nH]4)n[nH]3)cc2)c1 [Entry 20, N-[3-(methyloxy)phenyl]-N′-(4-{3-[5-(4-methylpiperazin-1-yl)-1H-benzimidazol-2-yl]-1H-pyrazol-5-yl}phenyl)urea] | < 0.05 µM | < 0.05 µM | > 5 µM | > 5 µM |
| CCN1CCN(c2ccc(-c3cc(-c4ccc(NC(=O)Nc5ccc(Cl)c(C(F)(F)F)c5)cc4)[nH]n3)cc2)CC1 [Entry 21, N-[4-chloro-3-(trifluoromethyl)phenyl]-N′-(4-{3-[4-(4-ethylpiperazin-1-yl)phenyl]-1H-pyrazol-5-yl}phenyl)urea] | < 0.05 µM | < 0.05 µM | > 5 µM | > 5 µM |
| CN1CCN(c2ccc3[nH]c(-c4cc(-c5ccc(NC(=O)Nc6cccc(F)c6)cc5)[nH]n4)nc3c2)CC1 [Entry 22, N-(3-fluorophenyl)-N′-(4-{3-[5-(4-methylpiperazin-1-yl)-1H-benzimidazol-2-yl]-1H-pyrazol-5-yl}phenyl)urea] | < 0.05 µM | < 0.05 µM | > 5 µM | > 5 µM |

The next lines start with the values.

| IC50 (c-Kit) | IC50 (flt-3) | IC50 (EphB4) | IC50 (EGFR) | SMILES |
| --- | --- | --- | --- | --- |
| < 0.05 µM | < 0.05 µM | > 5 µM | > 5 µM | COc1cc(NC(=O)Nc2ccc(-c3cc(-c4nc5ccc(N6CCN(C)CC6)cc5[nH]4)n[nH]3)cc2)cc(OC)c1 [Entry 11, N-[3,5-bis(methyloxy)phenyl]-N′-(4-{3-[6-(4-methylpiperazin-1-yl)-1H-benzimidazol-2-yl]-1H-pyrazol-5-yl}phenyl)urea] |
| < 0.05 µM | < 0.05 µM | > 5 µM | > 5 µM | CN1CCN(c2ccc3[nH]c(-c4cc(-c5ccc(NC(=O)Nc6ccc(OC(F)(F)F)cc6)cc5)[nH]n4)nc3c2)CC1 [Entry 12, N-(4-{3-[5-(4-methylpiperazin-1-yl)-1H-benzimidazol-2-yl]-1H-pyrazol-5-yl}phenyl)-N′-{4-[(trifluoromethyl)oxy]phenyl} urea] |
| < 0.05 µM | < 0.05 µM | > 5 µM | > 5 µM | CN1CCN(c2ccc3[nH]c(-c4cc(-c5ccc(NC(=O)Nc6ccc(Cl)c(C(F)(F)F)c6)cc5)[nH]n4)nc3c2)CC1 [Entry 14, N-[4-chloro-3-(trifluoromethyl)phenyl]-N′-(4-{3-[5-(4-methylpiperazin-1-yl)-1H-benzimidazol-2-yl]-1H-pyrazol-5-yl}phenyl)urea] |
